The source of these data is publication PMC9860728, “Identification of New N-methyl-piperazine Chalcones as Dual MAO-B/AChE Inhibitors” (Pharmaceuticals, 2023).

Read-outs that look alike come from different tables or passages of the source. Where only a bound is given, the exact number is not on record here.

Data set [1] concerns the target T1, AChE (Electrophorus electricus, UniProt O42275). As to conditions: read-out: Ki AChE; morpholine-based chalcones; cited from earlier work.
For data set [2], the target named is T2, MAO-B (Homo sapiens, UniProt P27338).
T2 construct: purchased Sigma Aldrich
T2 sequence (P27338 1-520): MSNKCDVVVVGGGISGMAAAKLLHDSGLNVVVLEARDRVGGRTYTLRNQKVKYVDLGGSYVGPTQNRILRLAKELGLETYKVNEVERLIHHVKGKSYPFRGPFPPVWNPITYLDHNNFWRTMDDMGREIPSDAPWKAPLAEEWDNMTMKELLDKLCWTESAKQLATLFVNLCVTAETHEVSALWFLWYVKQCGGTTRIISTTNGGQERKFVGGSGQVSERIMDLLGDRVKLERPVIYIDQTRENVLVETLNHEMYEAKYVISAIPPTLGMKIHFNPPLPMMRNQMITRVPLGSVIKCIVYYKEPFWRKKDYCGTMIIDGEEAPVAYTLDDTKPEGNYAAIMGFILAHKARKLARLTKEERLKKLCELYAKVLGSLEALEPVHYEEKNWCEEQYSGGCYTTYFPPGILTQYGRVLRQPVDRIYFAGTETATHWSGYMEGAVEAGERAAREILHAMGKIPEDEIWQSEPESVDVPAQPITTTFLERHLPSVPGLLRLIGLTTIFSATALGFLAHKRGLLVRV
The experiment in a line: Reversibility test for MAO-B using dialysis method. The note with it: for Residual activity of MAO-B after dialysis: after dialysis for 6 h, inhibitor at ~2 × IC50. In kind it is biochemical. As to the method:
Reversibility of the compounds for MAO-B was measured using the dialysis method. […] The reaction mixture was placed in a dialysis tube (DiaEasyTM Dialyzer (800 µL) MWCO 6–8 kDa, Biovision, CA, USA) and dialyzed for 6 h. After that, the 0.3 mM of benzylamine was added into the reaction mixture for measuring enzyme activity. The relative activity to the control (without inhibitors) before and after dialysis was calculated, respectively.

Data set [3] has as its target T2, MAO-B. As to conditions: MAO-B selectivity over MAO-A; cited from earlier work.
For the next data set, the target named is BChE (Equus caballus, UniProt P81908). In words: biochemical. As to conditions: for remaining activity at 10 µM: read-out: Residual Activities at 10 μM (%) BChE. The method, then: (§1) For measuring cholinesterase (ChE) activity, the Ellman method was employed with a slight modification. The AChE and BchE with ~0.02 U/mL were reacted with 0.5 mM ATCI and BTCI, respectively, followed by addition of 0.5 mM DTNB. […] In the inhibition assay, the enzyme and the compound were preincubated in reaction buffer for 15 min, followed by adding substrates and DTNB.
BChE, sequence (P81908 whole entry): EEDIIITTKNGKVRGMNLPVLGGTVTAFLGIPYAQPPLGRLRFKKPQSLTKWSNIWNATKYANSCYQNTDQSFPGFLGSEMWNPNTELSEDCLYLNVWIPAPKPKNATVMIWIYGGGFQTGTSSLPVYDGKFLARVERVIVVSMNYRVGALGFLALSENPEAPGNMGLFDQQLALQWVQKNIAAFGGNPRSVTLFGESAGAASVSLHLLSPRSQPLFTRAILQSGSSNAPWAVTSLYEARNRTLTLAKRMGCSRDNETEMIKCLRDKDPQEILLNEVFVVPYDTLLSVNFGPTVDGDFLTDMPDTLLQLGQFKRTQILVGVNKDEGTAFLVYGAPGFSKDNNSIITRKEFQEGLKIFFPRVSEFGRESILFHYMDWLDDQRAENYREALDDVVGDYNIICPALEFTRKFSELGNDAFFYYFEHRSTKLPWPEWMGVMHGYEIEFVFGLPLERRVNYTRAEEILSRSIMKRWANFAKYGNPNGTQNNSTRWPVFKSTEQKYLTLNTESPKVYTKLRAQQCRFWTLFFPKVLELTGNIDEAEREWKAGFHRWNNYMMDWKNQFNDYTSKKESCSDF

The nature of data set [4]: Cytotoxicity MTT assay on normal Vero cells. The note with it: African green monkey. The method, then: The reference compound staurosporine was purchased from Sigma-Aldrich (Saint Louis, MO, USA). […] CellTiter 96® Non-Radioactive Cell Proliferation Assay (MTT) reagent was purchased from Promega (Cat# G4000). The normal Vero cell line was purchased from ATCC. Normal Vero cells were cultured with EMEM medium plus 10% FBS. In total, 100 µg/mL penicillin and 100 µg/mL streptomycin were added to the culture media.
The test compounds (100 nL) and staurosporine (25 nL) were delivered from the source plate to the wells of 384-well cell culture plates by Echo 550 Liquid Handler. […] MTT Dye Solution (8 µL) was added to each well, and the plates were incubated at 37 °C in a CO2 incubator for 6 h. After incubation, the formazan was produced in the cells. Solubilization/Stop Solution (30 µL) was added to each well and the plates were incubated for another 1 h at 37 °C in a CO2 incubator to dissolve the formazan crystals. […] The IC50 curves were plotted, and the IC50 values were calculated using the GraphPad Prism 4 program based on a sigmoidal dose–response equation.
For orientation: Formazan colour is commonly taken as a measure of viable cells.

Data set [5] has as its target T1, AChE. The experiment in a line: AChE inhibition kinetics (Lineweaver–Burk and secondary plots). It counts as biochemical.
Data set [6] deals with T1, AChE. The experiment in a line: AChE inhibition assay (Ellman method, ATCI). The note with it: for remaining activity at 10 µM: 10 μM compound, read-out: Residual Activities at 10 μM (%) AChE; for SI (ChE): AChE selectivity over BChE, based on IC50 values. It counts as biochemical. The method, then:
as §1

The target in the next data set is T3, MAO-A (Homo sapiens, UniProt P21397).
T3 construct: purchased Sigma Aldrich
T3 sequence (P21397 1-527): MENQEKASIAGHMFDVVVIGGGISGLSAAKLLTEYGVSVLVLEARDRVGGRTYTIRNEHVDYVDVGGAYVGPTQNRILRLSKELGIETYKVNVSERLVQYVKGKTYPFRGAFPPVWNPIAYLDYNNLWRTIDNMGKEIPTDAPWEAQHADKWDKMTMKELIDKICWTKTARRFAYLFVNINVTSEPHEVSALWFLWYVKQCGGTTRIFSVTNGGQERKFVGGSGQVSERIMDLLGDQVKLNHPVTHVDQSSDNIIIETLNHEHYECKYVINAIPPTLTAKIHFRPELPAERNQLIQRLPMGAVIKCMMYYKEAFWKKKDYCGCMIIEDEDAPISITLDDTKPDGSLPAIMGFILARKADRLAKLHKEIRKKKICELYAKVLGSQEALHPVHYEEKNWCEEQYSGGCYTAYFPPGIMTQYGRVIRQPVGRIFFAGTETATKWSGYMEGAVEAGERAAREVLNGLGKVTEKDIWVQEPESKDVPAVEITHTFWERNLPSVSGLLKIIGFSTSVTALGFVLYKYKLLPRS
In words: MAO-A enzyme inhibition assay (kynuramine substrate). In kind it is biochemical. The note with it: mean ± SD; for remaining activity at 10 µM: 10 μM compound, read-out: Residual Activities at 10 μM (%) MAO-A. The method, then:
(§2) MAO assays were performed as described previously, i.e., ~0.09 U/mL of MAO-A and MAO-B were reacted with 0.06 mM kynuramine and 0.3 mM benzylamine, respectively, in 50 mM sodium phosphate (pH 7.2). […] For inhibition assay, the compounds were dissolved in DMSO and added into the reaction mixture. The final concentration of DMSO in the reaction mixture was less than 1% to avoid solvent disturbance.

Data set [7] addresses T2, MAO-B. The experiment in a line: MAO-B enzyme inhibition assay (benzylamine substrate). The note with it: for remaining activity at 10 µM: 10 μM compound, read-out: Residual Activities at 10 μM (%) MAO-B; for remaining activity at 10 µM / IC50: mean ± SD; for SI (MAO): MAO-B selectivity over MAO-A, based on IC50 values. It counts as biochemical. The method, then:
as §2

The mark [8] stands for this setting: read-out: Residual activity of MAO-B before dialysis.

T1 sequence (O42275 24-633): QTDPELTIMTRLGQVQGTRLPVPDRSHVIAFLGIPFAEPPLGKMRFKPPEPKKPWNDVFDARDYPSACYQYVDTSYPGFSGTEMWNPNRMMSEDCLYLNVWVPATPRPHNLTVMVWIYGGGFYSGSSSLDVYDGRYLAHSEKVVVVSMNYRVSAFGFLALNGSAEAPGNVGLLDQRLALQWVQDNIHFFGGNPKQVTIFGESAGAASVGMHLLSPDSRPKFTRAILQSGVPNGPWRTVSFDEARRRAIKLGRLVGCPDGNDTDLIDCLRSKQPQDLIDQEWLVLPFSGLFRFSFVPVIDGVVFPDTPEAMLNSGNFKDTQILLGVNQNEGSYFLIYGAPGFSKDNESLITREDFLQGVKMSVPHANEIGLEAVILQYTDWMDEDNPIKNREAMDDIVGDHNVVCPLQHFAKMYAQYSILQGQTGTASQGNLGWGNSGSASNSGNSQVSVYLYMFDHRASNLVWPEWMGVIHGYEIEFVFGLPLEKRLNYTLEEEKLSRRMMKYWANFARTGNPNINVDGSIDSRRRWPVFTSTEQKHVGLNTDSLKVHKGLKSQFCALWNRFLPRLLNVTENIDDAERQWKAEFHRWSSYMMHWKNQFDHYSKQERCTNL

Regarding `CN(C)c1ccc(/C=C/C(=O)c2ccc(N3CCOCC3)cc2)cc1` [MO5], the Ki (as a rule, the dissociation constant of the complex between target and ligand, obtained from inhibition or displacement) on AChE [1] was 2.52 µM.
As for `NCCNC(=O)c1ccc(Cl)cn1` [Lazabemide, reference compound], the “Residual activity of MAO-B after dialysis” value (“Residual activity of MAO-B” below) on MAO-B [2] is 98.78%. The remaining activity at 0.22 µM on MAO-B [2] (setting [8]) is 20.5%.
As to `C#CCN(C)Cc1ccccc1` [Pargyline, reference compound], the “Residual activity of MAO-B” value at MAO-B [2] is given as 24.88%.
Consider `O=C(/C=C/c1ccc(Br)cc1)c1ccc(N2CCOCC2)cc1` [MO9], for which the Ki at AChE [1] is 7.04 µM.
Turning to `O=C(/C=C/c1ccc(C(F)(F)F)cc1)c1ccc(N2CCNCC2)cc1` [PC11], the “SI (MAO)” value on MAO-B [3] is 49.2.
On to `O=C(/C=C/c1ccc(F)cc1)c1ccc(N2CCNCC2)cc1` [PC10], for which, at MAO-B [3], the “SI (MAO)” value was 48.3.
In the case of `CN1CCN(c2ccc(C(=O)/C=C/c3cc(Br)ccc3F)cc2)CC1` [Compound 2n, (E)-3-(5-bromo-2-fluorophenyl)-1-(4-(4-methylpiperazin-1-yl)phenyl)prop-2-en-1-one], the “Residual Activities at 10 μM (%) BChE” value on BChE (10 μM compound, mean ± SD) is reported as 43.21 ± 2.88%. Moreover, in [4], the IC50 – broadly, the midpoint of a concentration-inhibition curve – at 72 h was found to be 62 µM. Further, the “Inhibition pattern for AChE” value on AChE [5] is “mixed type”. Besides, on AChE [6] (mean ± SD), the IC50 was found to be 4.32 ± 0.39 µM.
`CN1CCN(c2ccc(C(=O)/C=C/c3ccc(F)c(C(F)(F)F)c3)cc2)CC1` [Compound 2k, (E)-3-(4-fluoro-3-(trifluoromethyl)phenyl)-1-(4-(4-methylpiperazin-1-yl)phenyl)prop-2-en-1-one]: the figures for the remaining activity at 10 µM on BChE, on MAO-A and on AChE [6] (mean ± SD) were 61.8 ± 5.54%, 96.4 ± 3.03% and 46.9 ± 2.58%, respectively. Besides, the IC50 at 72 h in data set [4] was 19.9 µM. The IC50 at MAO-A is over 40 µM. Also, the “Residual activity of MAO-B” value on MAO-B [2] was found to be 80.26%. On MAO-B [2] (dialysis method), the “Reversibility of MAO-B inhibition” value was “reversible”. In addition, the remaining activity at 1.16 µM at MAO-B [2] (setting [8]) is 14.6%. The “Inhibition pattern for AChE” value on AChE [5] was “mixed type”.
Turning to `CN1CCN(c2ccc(C(=O)/C=C/c3ccc(OC(F)F)cc3)cc2)CC1` [Compound 2h, (E)-3-(4-(difluoromethoxy)phenyl)-1-(4-(4-methylpiperazin-1-yl)phenyl)prop-2-en-1-one], the remaining activity at 10 µM on BChE was determined as 73.9 ± 3.35%; on MAO-A it was 55.2 ± 4.12%; on MAO-B [7] it was 17.3 ± 3.77%; on AChE [6] (mean ± SD), 38 ± 0.92%. Further, the IC50 was over 40 µM against MAO-A and 6.14 ± 0.43 µM against MAO-B [7]. In addition, at MAO-B [7], the “SI (MAO)” value is 6.51. The “SI (ChE)” value at AChE [6] was over 6.87.
Take `CN1CCN(c2ccc(C(=O)/C=C/c3cccc(C(F)(F)F)c3)cc2)CC1` [Compound 2a, (E)-1-(4-(4-methylpiperazin-1-yl)phenyl)-3-(3-(trifluoromethyl)phenyl)prop-2-en-1-one]: the remaining activity at 10 µM on BChE turned out to be 58.6 ± 6.8%; at MAO-A it was 118 ± 7.73%; at MAO-B [7], 12.8 ± 0.79%; at AChE [6] (mean ± SD), 34.9 ± 5.19%. Further, the IC50 at MAO-A was over 40 µM; against MAO-B [7], 2.58 ± 0.19 µM. Besides, on MAO-B [7], the “SI (MAO)” value is given as 15.50. Also, the “SI (ChE)” value at AChE [6] came to 2.44.
